Experimental data as given in patent US20150239831A1, “INHIBITORS OF CENTRAL NERVOUS SYSTEM VASOACTIVE INHIBITORY PEPTIDE RECEPTOR 2” (The Trustees Of Columbia University In The City Of New York, priority 2012, published 2015).

Columns and labels:
Format in all cases: cell-based
Design in all cases: expressed in transfected cells; host or cells: HEK293 cells transfected with VIPR2 in pCDNA3.1 (as described)
[1] = target: T1, VIPR2 (Homo sapiens, UniProt P41587); test: Inhibition of VIP-induced cAMP elevation (% Activity cAMP)
T1 sequence (P41587 24-438): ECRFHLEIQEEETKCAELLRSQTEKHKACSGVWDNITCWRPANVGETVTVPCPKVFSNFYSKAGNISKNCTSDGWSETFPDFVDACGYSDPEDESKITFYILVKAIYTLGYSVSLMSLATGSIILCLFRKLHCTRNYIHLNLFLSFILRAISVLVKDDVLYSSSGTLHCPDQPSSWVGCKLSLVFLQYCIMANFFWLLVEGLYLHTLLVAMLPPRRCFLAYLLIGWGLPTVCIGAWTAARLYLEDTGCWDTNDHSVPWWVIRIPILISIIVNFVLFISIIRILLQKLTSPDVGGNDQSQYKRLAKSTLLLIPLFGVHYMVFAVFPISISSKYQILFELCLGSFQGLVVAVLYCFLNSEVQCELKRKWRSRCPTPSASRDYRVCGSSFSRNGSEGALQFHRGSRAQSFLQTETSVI
Description: (§1) In a further non-limiting embodiment of the invention, the ability of a compound to inhibit VIPR2 and thereby […] a VIP-induced increase in cAMP may be measured using a Homogeneous Time-Resolved Fluorescence (“HTRF® assay; Cisbio Bioassays) as used in Chu et al., 2010, Molecular Pharmacol. 7795-101. In a method as used in Chu et al., 2010, Molecular Pharmacol. 7795-101, HEK293 cells may be transfected with nucleic acid encoding VIPR2, for example human VIPR2 (“hVIPR2”), for example comprised in a vector such as pCDNA3.1 vector. Successful transformants may then be selected, for example using 800 μg/ml G418. Clonal stable cell lines may then be generated by limited dilution to single cells and then may be clonally expanded and tested for VIP -dependent cAMP response. For the cAMP assay, about 3000-15,000 cells (in about 4-25 μl) may be placed in a well of an assay plate. The next day, inhibitor or test inhibitor and VIP may be added in a volume about 1-2 percent of the initial volume. Assay plates may then be returned to a cell incubator for 30 min before addition of a one-half volume of cAMP conjugate and, relative to the amount of cAMP conjugate, an equal volume of anti-cAMP conjugate (Cisbio). After at least 1 h of room-temperature incubation, HTRF signal may be read, for example using Viewlux or EnVision (PerkinElmer Life and Analytical Sciences, Waltham, Mass.). The ratio of […] at 665 nm and 620 nm times 10,000 may be calculated and plotted.
(§2) A series of compounds were prepared using a synthetic method analogous to that set forth in Scheme 1, above, and then tested for their ability to inhibit VIP-induced cAMP elevation and β-arrestin recruitment.
(§3) A series of compounds were prepared using a synthetic method analogous to that set forth in Scheme 1, above, and then tested for their ability to inhibit VIP-induced cAMP elevation and β-arrestin recruitment, as described herein (Discoverx Corporation, Fremont, Calif., US). Compound activities were also tested in a BRET-based assay, as described herein. The results are shown below in Tables 1-4, above.

[2] = target: T1, VIPR2; test: % Activity: inhibition of VIP-induced cAMP elevation and β-arrestin recruitment (Table 2)
Description: as §1
(§4) In a further non-limiting embodiment of the invention, the ability of a compound to inhibit VIPR2 GPCR activity may be tested, for example, using the PathHunter® eXpress β-Arrestin GPCR system (Discoverx Corporation, Fremont, Calif., US), as used by Chu et al., 2010, Molecular Pharmacol. 7795-101. In this assay, β-Arrestin is fused to the “Enzyme Acceptor” (“EA”), an N-terminal deletion mutant of β-gal, and the GPCR of interest is fused to a smaller (42 amino acids), weakly complementing portion of the β-gal enzyme (termed “ProLink™”). In cells that stably express these fusion proteins, the interaction of β-Arrestin and the GPCR following ligand stimulation forces the complementation of the two β-gal fragments resulting in the formation of a functional enzyme that converts substrate to detectable signal. In the absence of an interaction between the GPCR and β-Arrestin, the enzyme activity is low due to the low affinity of the two enzyme fragments. For example, a nucleic acid encoding VIPR2, for example hVIPR2, may be cloned into the ProLink vector (DiscoveRx) for GPCR-ProLink fusion protein production. Parental HEK293 cells that stably express β-arrestin2-β-gal-EA fusion protein (DiscoveRx) may be detached and transiently transfected with the VIPR2-containing vector using Fugene6 transfection reagent in suspension mode. Transfected cells in assay medium may be plated into test plates, for example at 15,000 cells/25 μl/well. After overnight incubation, 500 nl of an inhibitor or test inhibitor may be introduced into the test plate followed by 2 h incubation at 37° C., 5% CO2. Flash detection reagents may be added at 12.5 μl/well. After 5 min to 1 h of room-temperature incubation, the cell plates may be read on CLIPR (PerkinElmer Life and Analytical Sciences)or Acquest (Molecular Devices, Sunnyvale, Calif.) for luminescence signal.
as §3

[3] = target: T1, VIPR2; test: Inhibition of VIP-induced β-arrestin recruitment (% Activity Arrestin)
Description: as §4, §2, §3

| inhibition at 0.5 µM ([1]; Batch 2) [%] | inhibition at 1 µM ([1]; Batch 2) [%] | inhibition at 5 µM ([1]; Batch 2) [%] | % Activity [2] [%] | inhibition at 0.5 µM ([3]; Batch 2) [%] | inhibition at 1 µM ([3]; Batch 2) [%] | inhibition at 5 µM ([3]; Batch 2) [%] | inhibition at 0.5 µM ([1]; Batch 1) [%] | inhibition at 1 µM ([1]; Batch 1) [%] | inhibition at 5 µM ([1]; Batch 1) [%] | inhibition at 0.5 µM ([3]; Batch 1) [%] | inhibition at 1 µM ([3]; Batch 1) [%] | inhibition at 5 µM ([3]; Batch 1) [%] | inhibition at 0.5 µM ([1]; Batch 3) [%] | inhibition at 1 µM ([1]; Batch 3) [%] | inhibition at 5 µM ([1]; Batch 3) [%] | inhibition at 0.5 µM ([3]; Batch 3) [%] | inhibition at 1 µM ([3]; Batch 3) [%] | inhibition at 5 µM ([3]; Batch 3) [%] | Compound |
| --- | --- | --- | --- | --- | --- | --- | --- | --- | --- | --- | --- | --- | --- | --- | --- | --- | --- | --- | --- |
| 14.2 | 14.2 | 9.4 | 12.15 | 0.5 | 9.2 | 14.9 |  |  |  |  |  |  |  |  |  |  |  |  | O=C([C@@H](Cc1ccccc1)C[C@H](O)CNS(=O)(=O)c1ccc([N+](=O)[O-])cc1)N1CCCCC1 [Compound B18B] |
| 2.4 | 7.2 | 23.6 | 27.2000 | -19.5 | -13.3 | 30.8 |  |  |  |  |  |  |  |  |  |  |  |  | O=C(NCc1ccc(F)cc1F)[C@H](Cc1ccccc1)C[C@H](O)CNS(=O)(=O)c1ccc([N+](=O)[O-])cc1 [Compound B14A] |
|  |  |  | 21.1 |  |  |  | 13.3 | 15.6 | 22.2 | 7.1 | 3.2 | 20 |  |  |  |  |  |  | CC(C)CS(=O)(=O)NC[C@@H](O)C[C@@H](Cc1ccccc1)C(=O)N[C@H]1c2ccccc2C[C@H]1O [Compound A11] |
|  |  |  | −0.6 |  |  |  | 11.7 | 12.9 | 9.4 | 1.7 | -28.8 | -10.6 |  |  |  |  |  |  | O=C(CCCCBr)NC[C@@H](O)C[C@@H](Cc1ccccc1)C(=O)N[C@H]1c2ccccc2C[C@H]1O [Compound A15] |
|  |  |  | 8.25 |  |  |  |  |  |  |  |  |  | 0.6 | 1.5 | 26.9 | -3.4 | -1.2 | -10.4 | CCC(=O)Nc1ccc(S(=O)(=O)NC[C@@H](O)C[C@@H](Cc2ccccc2)C(=O)N[C@H]2c3ccccc3C[C@H]2O)cc1 [Compound X091] |
|  |  |  | 26.55 |  |  |  | 21 | 21.1 | 24 | -3.8 | 37 | 29.1 |  |  |  |  |  |  | O=C(NC[C@@H](O)C[C@@H](Cc1ccccc1)C(=O)N[C@H]1c2ccccc2C[C@H]1O)C1CC1 [Compound A1] |
| 9.2 | 12.3 | 6 | 5.35 | -0.9 | 3.3 | 4.7 |  |  |  |  |  |  |  |  |  |  |  |  | O=C(NN1CCCCC1)[C@@H](Cc1ccccc1)C[C@H](O)CNS(=O)(=O)c1ccc([N+](=O)[O-])cc1 [Compound B6B] |
| 5.7 | 7.5 | 16 | 12.9 | -2.7 | 8.1 | 9.8 |  |  |  |  |  |  |  |  |  |  |  |  | O=C(NC1Cc2ccccc2C1)[C@H](Cc1ccccc1)C[C@H](O)CNS(=O)(=O)c1ccc([N+](=O)[O-])cc1 [Compound B2A] |
|  |  |  | 18.5 |  |  |  | 16.4 | 18.2 | 15.9 | 19.2 | 24.3 | 21.1 |  |  |  |  |  |  | O=C(CCCCl)NC[C@@H](O)C[C@@H](Cc1ccccc1)C(=O)N[C@H]1c2ccccc2C[C@H]1O [Compound A22] |
| -1.1 | -1.3 | -2.9 | 10.65 | 1.8 | 4.4 | 24.2 |  |  |  |  |  |  |  |  |  |  |  |  | O=C(NCc1ccccc1)[C@H](Cc1ccccc1)C[C@H](O)CNS(=O)(=O)c1ccc([N+](=O)[O-])cc1 [Compound B3A] |
| -8.1 | -6.1 | -4.3 | 0.7 | -5.4 | 7.9 | 5.7 |  |  |  |  |  |  |  |  |  |  |  |  | CCN(CC)C(=O)[C@H](Cc1ccccc1)C[C@H](O)CNS(=O)(=O)c1ccc([N+](=O)[O-])cc1 [Compound B15A] |
|  |  |  | 12.9 |  |  |  | 14.9 | 17.7 | 20.3 | 6.1 | 32.7 | 5.5 |  |  |  |  |  |  | O=C(NC[C@@H](O)C[C@@H](Cc1ccccc1)C(=O)N[C@H]1c2ccccc2C[C@H]1O)c1ccccn1 [Compound A17] |
|  |  |  | −6.85 |  |  |  |  |  |  |  |  |  | -6.3 | -7.3 | -1.4 | 0 | -17.3 | -12.3 | O=C(N[C@H]1c2ccccc2C[C@H]1O)[C@H](Cc1ccccc1)C[C@H](O)CNS(=O)(=O)c1ccc(C(=O)N2CCCCC2)cc1 [Compound X101] |
|  |  |  | 8.85 |  |  |  | 10.9 | 13.6 | 18.3 | -12 | -3.8 | -0.6 |  |  |  |  |  |  | Cc1ccc([N+](=O)[O-])cc1S(=O)(=O)NC[C@@H](O)C[C@@H](Cc1ccccc1)C(=O)N[C@H]1c2ccccc2C[C@H]1O [P] |
| 6.7 | 3.6 | 2.1 | −10.45 | -6.5 | -16.6 | -23 |  |  |  |  |  |  |  |  |  |  |  |  | NC(=O)[C@H](Cc1ccccc1)C[C@H](O)CNS(=O)(=O)c1ccc([N+](=O)[O-])cc1 [Compound B12A] |
| 5.4 | 7.8 | 7.3 | 3.55 | 9.4 | 7.2 | -0.2 |  |  |  |  |  |  |  |  |  |  |  |  | C#CCNC(=O)[C@H](Cc1ccccc1)C[C@H](O)CNS(=O)(=O)c1ccc([N+](=O)[O-])cc1 [Compound B21A] |
|  |  |  | 10.05 |  |  |  |  |  |  |  |  |  | -1.4 | 0.1 | 25.5 | 4.1 | 1.8 | -5.4 | O=C(N[C@H]1c2ccccc2C[C@H]1O)[C@H](Cc1ccccc1)C[C@H](O)CNS(=O)(=O)c1ccc(C(=O)N2CCOCC2)cc1 [Compound X099] |
